Data published in US9193729B2, “Inhibiting transient receptor potential ion channel TRPA1” (Cubist Pharmaceuticals, Inc., priority 2011, dated 2015).

Legend:
[1] = biological target: hTRPV1 (Homo sapiens, UniProt Q8NER1); test: Patch clamp selectivity, hTRPV1; format: cell-based; conditions: hTRPV1 vs TRPA1
Experimental: (§1) Data for TRPA1 inhibition and the selectivity of TRPA1 inhibition was obtained by this method for the compound of Formula (Ia) and included in Table 1 and Table 2. All currents were recorded in whole-cell configuration using EPC-9 and EPC-10 amplifiers and Patchmaster software (HEKA). […] The standard pipette solution consisted of 140 mM CsAsp, 10 mM EGTA, 10 mM HEPES, 2.27 mM MgCl2, 1.91 mM CaCl2, 4 mM MgATP, and 0.1-0.3 mM Na2GTP, with pH adjusted to 7.2 with CsOH. In addition, a solution containing 145 mM CsCl, 10 mM HEPES, 10 mM EGTA and 1 mM MgCl2 (pH 7.2 adjusted with CsOH) can be used. The standard bath solution contained 150 mM NaCl, 10 mM HEPES, 10 mM glucose, 4.5 mM KCl, 1 mM EGTA, 3 mM MgCl2, with pH adjusted to 7.4 with NaOH. In some instances, 2 mM CaCl2 was added in place of EGTA and the concentration of MgCl2 was reduced to 1 mM.
(§2) Data were collected either by continuous recordings at −60 mV or by applying voltage ramps from a holding potential of 0 mV every 4 s. […] Inward and outward currents were analyzed from the ramps at −80 and 80 mV, respectively. […]
(§3) Solutions were switched using a gravity-fed continuous focal perfusion system. […] Temperatures were confirmed using a thermistor (Warner Instruments, TA-29), with temperatures at the recorded cell estimated to be within +/−2° C. of those reported. […]

[2] = biological target: hERG (Homo sapiens, UniProt Q12809); test: Patch clamp selectivity, hERG; format: cell-based; conditions: hERG vs TRPA1
hERG, sequence (Q12809 whole entry): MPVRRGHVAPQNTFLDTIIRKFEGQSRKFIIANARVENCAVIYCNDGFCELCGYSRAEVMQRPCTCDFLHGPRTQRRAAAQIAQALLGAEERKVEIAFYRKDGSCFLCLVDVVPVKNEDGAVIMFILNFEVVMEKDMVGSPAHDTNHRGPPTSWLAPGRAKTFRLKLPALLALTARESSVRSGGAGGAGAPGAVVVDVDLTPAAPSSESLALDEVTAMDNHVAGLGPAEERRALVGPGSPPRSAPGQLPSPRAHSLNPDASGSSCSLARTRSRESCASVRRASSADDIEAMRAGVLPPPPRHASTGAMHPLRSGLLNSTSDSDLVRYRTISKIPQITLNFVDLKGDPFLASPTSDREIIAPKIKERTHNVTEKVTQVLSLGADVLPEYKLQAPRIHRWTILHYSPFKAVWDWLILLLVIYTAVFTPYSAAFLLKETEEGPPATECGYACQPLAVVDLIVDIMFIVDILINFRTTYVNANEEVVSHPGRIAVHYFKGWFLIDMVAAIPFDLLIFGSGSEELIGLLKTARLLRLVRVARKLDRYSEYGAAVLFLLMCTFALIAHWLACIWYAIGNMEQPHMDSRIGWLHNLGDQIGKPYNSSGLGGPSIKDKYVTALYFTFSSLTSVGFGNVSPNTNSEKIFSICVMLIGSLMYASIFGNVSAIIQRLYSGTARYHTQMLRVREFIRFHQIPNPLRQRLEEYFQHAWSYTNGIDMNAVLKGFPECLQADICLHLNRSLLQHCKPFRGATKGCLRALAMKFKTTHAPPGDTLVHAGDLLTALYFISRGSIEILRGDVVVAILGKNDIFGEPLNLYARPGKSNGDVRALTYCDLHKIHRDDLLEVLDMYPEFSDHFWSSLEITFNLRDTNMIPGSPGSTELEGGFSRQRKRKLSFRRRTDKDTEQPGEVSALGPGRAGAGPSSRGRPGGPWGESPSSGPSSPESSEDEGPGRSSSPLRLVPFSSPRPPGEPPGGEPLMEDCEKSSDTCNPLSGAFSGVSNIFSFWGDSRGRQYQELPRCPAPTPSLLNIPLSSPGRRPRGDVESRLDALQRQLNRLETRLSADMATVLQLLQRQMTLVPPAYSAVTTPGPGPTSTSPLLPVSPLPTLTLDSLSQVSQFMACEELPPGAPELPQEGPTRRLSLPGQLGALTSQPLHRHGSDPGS
Experimental: as §1, §2, §3

[3] = test system: CFA-induced cold allodynia; test: Complete Freund's Adjuvant (CFA) cold allodynia rodent pain model; format: in vivo, rat; conditions: in words
Experimental: The compound of Formula (Ia) is also active in rodent models of pain in vivo induced by cold allodynia following chronic Complete Freund's Adjuvant-induced inflammation, as described in Example 6. […] The compound of Formula (Ia), the comparator compound of Formula (II) and ketoprofen were tested by the CFA-induced pain test method reported in del Camino et al., J. Neurosci., 30(45):15165-15174, incorporated herein by reference in its entirety. Briefly, the hind paw is sensitized to cold temperature (allodynic), by administering 0.1 mL of Complete Freund's Adjuvant (CFA) is administered to the left hind paw. 2-3 days later, the time taken for the animal to lift its CFA-injected paw is recorded compared to its un-injected normal right hind paw. […] To avoid tissue damage the maximum cut-off time is 5 minutes. Animals that are allodynic (average PWL to the first three pain behaviors<150 seconds for the CFA-injected hind paw: ˜≧50% difference between the normal and CFA-injected paw) are included in the study and subsequently randomized across treatment groups. The following day, the animals are dosed under blinded conditions. Following the 1-2 hour pre-treatment time, the post-dose PWL readings are again taken. The efficacy of the drug treatment is assessed by comparing the PWL in the drug treatment animals to those animals that receive the vehicle.

[4] = test system: healthy male volunteers; test: Single ascending dose Phase 1A study; format: in vivo, human; conditions: 6 ascending single doses, placebo-controlled
From the text: A randomized, double-blind, placebo-controlled, cross-over, single dose, safety, tolerability and pharmacokinetic study of 6 ascending doses of the compound of Formula (Ia) was undertaken in two cohorts of healthy male volunteers. A total of eighteen eligible healthy mail volunteers were recruited utilizing an alternating panel design. The first cohort of nine subjects (Cohort 1) was sequentially enrolled into 3 of 6 dosing periods (Dose Levels 1, 3, and 5). The remaining cohort of nine subjects (Cohort 2) was enrolled in the other 3 dosing periods (Dose Levels 2, 4, and 6). Within each dosing period, subjects were randomly assigned 2:1 to the compound of Formula (I) (n=6) or placebo (n=3). Each subject received one dose of placebo and two different doses of the compound of Formula (I) over the course of their participation in all three dosing periods. Subjects were equally randomized to one of 3 possible sequences, namely 1) placebo, active, active, 2) active, placebo, active, and 3) active, active, placebo.

hTRPV1, sequence (Q8NER1 whole entry): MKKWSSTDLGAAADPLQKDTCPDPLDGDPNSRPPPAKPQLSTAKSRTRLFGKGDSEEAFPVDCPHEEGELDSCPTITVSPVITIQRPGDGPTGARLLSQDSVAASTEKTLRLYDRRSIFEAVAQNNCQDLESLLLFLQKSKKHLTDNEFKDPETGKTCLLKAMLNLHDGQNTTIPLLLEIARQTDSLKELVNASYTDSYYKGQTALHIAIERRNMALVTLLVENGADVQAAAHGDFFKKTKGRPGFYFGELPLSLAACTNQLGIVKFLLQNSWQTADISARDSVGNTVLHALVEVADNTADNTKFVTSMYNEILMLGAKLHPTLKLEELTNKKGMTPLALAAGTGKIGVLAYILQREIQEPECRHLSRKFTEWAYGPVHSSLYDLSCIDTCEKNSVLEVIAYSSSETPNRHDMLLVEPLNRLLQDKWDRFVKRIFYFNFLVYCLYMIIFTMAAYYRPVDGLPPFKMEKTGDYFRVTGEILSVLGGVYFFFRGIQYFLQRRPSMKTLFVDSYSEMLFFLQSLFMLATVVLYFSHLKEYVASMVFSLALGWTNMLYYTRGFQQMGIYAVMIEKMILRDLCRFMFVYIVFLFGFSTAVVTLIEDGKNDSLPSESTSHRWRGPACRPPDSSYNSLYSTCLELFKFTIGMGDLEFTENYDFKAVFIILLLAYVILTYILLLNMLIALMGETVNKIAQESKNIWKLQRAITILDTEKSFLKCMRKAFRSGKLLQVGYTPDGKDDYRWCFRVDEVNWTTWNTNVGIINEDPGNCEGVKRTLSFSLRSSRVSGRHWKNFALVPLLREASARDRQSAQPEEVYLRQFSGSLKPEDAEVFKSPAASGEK

C[C@H]1CCCN1c1ncc(-c2cccc(NC(=O)Cn3cnc4c3c(=O)n(C)c(=O)n4C)n2)cn1 [Formula (Ia)]
Fold Selectivity Compared to TRPA1 [1]: >100 Fold | Fold Selectivity Compared to TRPA1 [2]: >100 Fold | effect on cold allodynia [3]: has an analgesic effect on cold allodynia | safety signals [4]: no safety signals seen that were attributable to the compound
